Assay results published in patent EP4813463A2, “TYK2 INHIBITORS AND COMPOSITIONS AND METHODS THEREOF” (Lynk Pharmaceuticals Co. Ltd., priority 2023, dated 2024).
Where two headings read alike, the source gives them in different places.

Columns and labels:
JAK1-JH2 domain = target: T1, JAK1-JH2 domain (Homo sapiens, UniProt P23458); assay: Binding activity test for JH2 domain of JAK1 (Tb-antibody/tracer FRET); settings: JH2 domain enzyme; 60 min at 25°C, then 4°C overnight; read-out: JAK1 JH2 Binding IC50
T1 construct: JAK1-JH2 domain or TYK2-JH2 domain enzyme in assay buffer
T1 sequence (P23458 583-855 limits assumed): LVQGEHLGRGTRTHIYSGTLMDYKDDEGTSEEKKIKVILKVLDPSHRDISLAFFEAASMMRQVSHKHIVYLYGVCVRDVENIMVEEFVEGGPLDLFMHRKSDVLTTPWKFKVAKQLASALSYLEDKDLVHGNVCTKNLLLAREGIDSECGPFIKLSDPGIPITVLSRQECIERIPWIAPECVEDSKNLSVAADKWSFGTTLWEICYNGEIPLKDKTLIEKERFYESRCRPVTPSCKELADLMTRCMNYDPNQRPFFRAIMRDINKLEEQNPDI
Procedure: Binding Activity test for JH2 domain of JAK1 and TYK2 […] Add 8μL/well in echo source plate, echo will add 75nL/well with 3-fold serial dilution for 11 points in assay plate. 75nL DMSO for high control and low control. […] For low control, add 5μL/well assay buffer. And then spin down at 1000rpm and centrifuge for 30 seconds. After enzyme system prepared, add 5μL of Tb-antibody solution into each well of assay plate. Spin down at 1000 rpm and centrifuge for 30sec. After Tb-antibody added, also add 5μL of tracer into the assay plate. Spin down at 1000rpm and centrifuge for 30sec. Incubate for […] at 25°C firstly and then continue to incubate the plate at 4°C overnight. Read by envision in FRET mode. The Luminescence value was recorded by a multi-label reader Envision (PerkinElmer). […] Table 2. IC50 on JH2 domain activity (nM)

[1] = tested on: Ba/F3-FL-TYK2-P760L cells; assay: Anti-proliferative assay in engineered Ba/F3 cells (Cell-Titer Glo, 72 h); format: cell-based; settings: 72 h compound treatment, concentration that causes 50% growth inhibition, read-out: Baf3-FL-T2P760L
How it was run: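 IC50 from luminescent ATP viability after 72 h compound exposure (37 °C, 5% CO2), % inhibition normalised to DMSO-treated cells minus medium blank. IL-3-free Ba/F3-FL-TYK2-P760L (Tel-JAK fusion) cells in 10% FBS RPMI-1640 received 9 three-fold doses, top 20 µM, 0.1% DMSO.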

TYK2-JH2 domain = target: T2, TYK2-JH2 domain (Homo sapiens, UniProt P29597); assay: Binding activity test for JH2 domain of TYK2 (Tb-antibody/tracer FRET); settings: for IC50: JH2 domain enzyme, 60 min at 25°C, then 4°C overnight, read-out: TYK2 JH2 Binding IC50; for JAK1/TYK2 selectivity: ratio of JAK1 JH2 to TYK2 JH2 binding IC50
T2 construct: JAK1-JH2 domain or TYK2-JH2 domain enzyme in assay buffer
T2 sequence (P29597 589-875 limits assumed): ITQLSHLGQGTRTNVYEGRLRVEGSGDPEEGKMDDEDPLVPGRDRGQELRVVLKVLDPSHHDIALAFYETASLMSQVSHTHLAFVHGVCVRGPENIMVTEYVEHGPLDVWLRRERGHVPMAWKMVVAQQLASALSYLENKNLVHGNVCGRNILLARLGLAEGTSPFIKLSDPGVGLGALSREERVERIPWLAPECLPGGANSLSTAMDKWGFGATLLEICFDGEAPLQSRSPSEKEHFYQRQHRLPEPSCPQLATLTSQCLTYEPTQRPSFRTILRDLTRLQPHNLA
How it was run: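 IC50 values (nM) come from TR-FRET readings taken after a 25°C incubation followed by overnight at 4°C. Each well held JH2 domain protein, Tb-antibody, tracer and test compound titrated in 11 threefold steps, with DMSO high and low controls.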

SMILES | IC50 (JAK1-JH2 domain) [nM] | IC50 ([1]; Mus musculus, BaF3, 72 h) [nM] | IC50 (TYK2-JH2 domain) [nM] | JAK1/TYK2 selectivity (TYK2-JH2 domain) | IC50 [1] [nM]
[2H]C([2H])([2H])NC(=O)c1cnc(NC(=O)C2CC2)cc1Nc1cnn2ccc(C(C)(C)O)c(C)c12 [Example 34, 6-(Cyclopropanecarboxamido)-4-((5-(2-hydroxypropan-2-yl)-4-methylpyrazolo[1,5-a]pyridin-3-yl)amino)-N-(methyl-d3)nicotinamide] | > 298 | > 5000 | 161 | >1.85 | 
[2H]C([2H])([2H])CC(=O)c1cnc(NC(=O)C2CC2)cc1Nc1nn(C)c2ccc(C(OC)C(F)(F)F)c(OC)c12 (single isomer, unassigned) [Example 65A, (R*)-N-(4-((4-methoxy-1-methyl-5-(2,2,2-trifluoro-1-methoxyethyl)-1H-indazol-3-yl)amino)-5-(propanoyl-3,3,3-d3)pyridin-2-yl)cyclopropanecarboxamide] | > 298 |  | 0.54 | >553.80 | 117
[2H]C([2H])([2H])NC(=O)c1nnc(NC(=O)C2CC23CC3)cc1Nc1cnn2ccc([C@H](O)C(F)(F)F)c(OC)c12 (single isomer, unassigned) [Example 82B, 4-((4-Methoxy-5-((S)-2,2,2-trifluoro-1-hydroxyethyl)pyrazolo[1,5-a]pyridin-3-yl)amino)-N-(methyl-d3)-6-((S*)-spiro[2.2]pentane-1-carboxamido)pyridazine-3-carboxamide] | 6.32 |  | 0.23 | 27.48 | 27
[2H]C([2H])([2H])NC(=O)c1cnc(NC(=O)[C@@H]2C[C@@H]2F)cc1Nc1cnn2cnc(OC)c(OC)c12 [Example 36, 4-((4,5-Dimethoxypyrazolo[1,5-c]pyrimidin-3-yl)amino)-6-((1S,2S)-2-fluorocyclopropane-1-carboxamido)-N-(methyl-d3)nicotinamide] | 255 | 1770 | 4.55 | 56.0 | 
COC(=O)c1cnc(Nc2ccc(F)cn2)cc1Nc1nn(C)c2ccc([C@H](OC)C(F)(F)F)c(OC)c12 [Example 169, Methyl (S)-6-((5-fluoropyridin-2-yl)amino)-4-((4-methoxy-1-methyl-5-(2,2,2-trifluoro-1-methoxyethyl)-1H-indazol-3-yl)amino)nicotinate] | > 298 | 8.33 | 0.19 | >1571 | 
[2H]C([2H])([2H])NC(=O)c1cnc(NC(=O)C2CC2)cc1Nc1cnn2ccc(C(O)C(F)(F)F)cc12 (stereo not drawn) [Example 41, 6-(Cyclopropanecarboxamido)-N-(methyl-d3)-4-((5-(2,2,2-trifluoro-1-hydroxyethyl)pyrazolo[1,5-a]pyridin-3-yl)amino)nicotinamide] | > 298 | > 5000 | 46.8 | >6.37 | 
[2H]C([2H])([2H])NC(=O)c1cnc(NC(=O)C2CC2)cc1Nc1cnn2ccc(C(F)(F)F)c(OC)c12 [Example 10, 6-(Cyclopropanecarboxamido)-4-((4-methoxy-5-(trifluoromethyl)pyrazolo[1,5-a]pyridin-3-yl)amino)-N-(methyl-d3)nicotinamide] | 9.71 | 120 | 0.224 | 43.3 | 
COC(=O)c1cnc(NC(=O)C2CC2)cc1Nc1nn(C)c2ccc([C@@H](O)C(F)(F)F)c(OC)c12 [Example 48B, Methyl (R)-6-(cyclopropanecarboxamido)-4-((4-methoxy-1-methyl-5-(2,2,2-trifluoro-1-hydroxyethyl)-1H-indazol-3-yl)amino)nicotinate] | 85.9 | 162 | 1.68 | 51.13 | 
COC(=O)c1cnc(NC(=O)C2CC2)cc1Nc1nn(C)c2ccc(C(OC)C(F)(F)F)c(OC)c12 (stereo not drawn) [Example 45, Methyl 6-(cyclopropanecarboxamido)-4-((4-methoxy-1-methyl-5-(2,2,2-trifluoro-1-methoxyethyl)-1H-indazol-3-yl)amino)nicotinate] | 64.3 | 8.61 | 0.209 | 307.51 | 
[2H]C([2H])([2H])CC(=O)c1cnc(NC(=O)C2CC2)cc1Nc1nc2ccc(N3CC(OC)C3)cn2n1 [Example 64, N-[4-[[6-(3-methoxyazetidin-1-yl)-[1,2,4]triazolo[1,5-a]pyridin-2-yl]amino]-5-(3,3,3-trideuteriopropanoyl)-2-pyridyl]cyclopropanecarboxamide] | 34.7 | 13 | 0.141 | 246 | 
[2H]C([2H])([2H])OC(=O)c1cnc(NC(=O)C2CC2)cc1Nc1ncn2ncc(CC)c2c1OC [Example 59, Methyl-d3 6-(cyclopropanecarboxamido)-4-((3-ethyl-4-methoxypyrazolo[1,5-c]pyrimidin-5-yl)amino)nicotinate] | 44.1 | 208 | 0.834 | 52.94 | 
[2H]C([2H])([2H])NC(=O)c1cnc(Nc2ccc(F)cn2)cc1Nc1nn(C)c2ccc([C@H](OC)C(F)(F)F)c(OC)c12 [Example 171, (S)-6-((5-fluoropyridin-2-yl)amino)-4-((4-methoxy-1-methyl-5-(2,2,2-trifluoro-1-methoxyethyl)-1H-indazol-3-yl)amino)-N-(methyl-d3)nicotinamide] | 17 | 1.03 | 0.171 | 99.17 | 
COc1c([C@H](OC)C(F)(F)F)ccn2ncc(Nc3cc(NC(=O)C4CC4)ncc3C(O)C(F)(F)F)c12 (stereo partly drawn) [Example 90, N-(4-((4-methoxy-5-((S)-2,2,2-trifluoro-1-methoxyethyl)pyrazolo[1,5-a]pyridin-3-yl)amino)-5-(2,2,2-trifluoro-1-hydroxyethyl)pyridin-2-yl)cyclopropanecarboxamide] | > 298 | > 5000 | > 298 |  | 
[2H]C([2H])([2H])NC(=O)c1cnc(NC(=O)C2CC2)cc1Nc1cnn2ccccc12 [Example 40, 6-(Cyclopropanecarboxamido)-N-(methyl-d3)-4-(pyrazolo[1,5-a]pyridin-3-ylamino)nicotinamide] | > 298 | > 5000 | 186 | >1.6 | 
COC(=O)c1cnc(NC(=O)C2CC2)cc1Nc1nccc(-c2cnn(C)n2)c1OC [Example 62, Methyl 6-(cyclopropanecarboxamido)-4-((3-methoxy-4-(2-methyl-2H-1,2,3-triazol-4-yl)pyridin-2-yl)amino)nicotinate] | 154 | > 1000 | 0.98 | 156.97 | 
[2H]C([2H])([2H])NC(=O)c1cnc(Nc2cc(CN3CCOCC3)n(C)n2)cc1Nc1nn(C)c2ccc([C@H](OC)C(F)(F)F)c(OC)c12 [Example 182, (S)-4-((4-Methoxy-1-methyl-5-(2,2,2-trifluoro-1-methoxyethyl)-1H-indazol-3-yl)amino)-N-(methyl-d3)-6-((1-methyl-5-(morpholinomethyl)-1H-pyrazol-3-yl)amino)nicotinamide] | 1.97 | 0.817 | 0.141 | 13.95 | 
[2H]C([2H])([2H])NC(=O)c1cnc(NC(=O)C2CC2)cc1Nc1cnn2ccc([C@H](OC([2H])([2H])[2H])C(F)(F)F)c(OC)c12 [Example 28, (S)-6-(cyclopropanecarboxamido)-4-((4-methoxy-5-(2,2,2-trifluoro-1-(methoxy-d3)ethyl)pyrazolo[1,5-a]pyridin-3-yl)amino)-N-(methyl-d3)nicotinamide] | 7.48 | 10.7 | 0.073 | 102.5 | 
COC(=O)c1nnc(NC(=O)C2CC2)cc1Nc1cccc(-c2ncn(C)n2)c1OC [Example 85, Methyl 6-(cyclopropanecarboxamido)-4-((2-methoxy-3-(1-methyl-1H-1,2,4-triazol-3-yl)phenyl)amino)pyridazine-3-carboxylate] | > 298 | > 5000 | 198 | >1.51 | 
CCOC(=O)c1cnc(NC(=O)C2CC2)cc1Nc1cnn2ccc([C@H](OC)C(F)(F)F)c(OC)c12 [Example 88, Ethyl (S)-6-(cyclopropanecarboxamido)-4-((4-methoxy-5-(2,2,2-trifluoro-1-methoxyethyl)pyrazolo[1,5-a]pyridin-3-yl)amino)nicotinate] | > 298 | 719 | 1.7 | >175.18 | 
